Data from US4590271A, “2,4-diamino-5-(substituted)pyrimidines, useful as antimicrobials” (Burroughs Wellcome Co., priority 1982, dated 1986).
Converted amounts (≈) assume the structure as drawn.

Legend:
[1] = system: St. agalactiae CN1143; assay: Minimum inhibitory concentration in vitro, St. agalactiae CN1143; type: cell-based; settings: Streptococcus agalactiae, read-out: Minimum Inhibitory Concentrations
[2] = system: St. pyogenes CN10; assay: Minimum inhibitory concentration in vitro, St. pyogenes CN10; type: cell-based; settings: Streptococcus pyogenes, read-out: Minimum Inhibitory Concentrations
[3] = system: Staph. aureus CN491; assay: Minimum inhibitory concentration in vitro, Staph. aureus CN491; type: cell-based; settings: Staphylococcus aureus, read-out: Minimum Inhibitory Concentrations
[4] = system: St. faecalis CN478; assay: Minimum inhibitory concentration in vitro, St. faecalis CN478; type: cell-based; settings: Enterococcus faecalis, read-out: Minimum Inhibitory Concentrations
[5] = system: B. fragilis; assay: Minimum inhibitory concentration in vitro, B. fragilis; type: cell-based; settings: Bacteroides fragilis, mean of 3 Strains, read-out: Minimum Inhibitory Concentrations
[6] = system: N. gonorrhoeae; assay: Minimum inhibitory concentration in vitro, N. gonorrhoeae; type: cell-based; settings: Neisseria gonorrhoeae, mean of 17 strains, read-out: Minimum Inhibitory Concentrations
[7] = system: Esch. coli CN314; assay: Minimum inhibitory concentration in vitro, Esch. coli CN314; type: cell-based; settings: Escherichia coli, read-out: Minimum Inhibitory Concentrations
[8] = system: bacterial; settings: amongst the 2,4-diamino-5-benzylpyrimidines known to date; cited from earlier work

| SMILES | MIC [1] [µg/mL] | MIC [2] [µg/mL] | MIC [3] [µg/mL] | MIC [4] [µg/mL] | MIC [5] [µg/mL] | MIC [6] [µg/mL] | MIC [7] [µg/mL] | general antibacterial activity [8] |
| --- | --- | --- | --- | --- | --- | --- | --- | --- |
| COc1cc(Cc2cnc(N)nc2N)c2c(C)c(C)oc2c1OC [Compound 1, 2,4-Diamino-5-(6,7-dimethoxy-2,3-dimethyl-4-benzofuranylmethyl)pyrimidine] | 5 (≈ 15.2 µM) | 5 (≈ 15.2 µM) | 0.5 (≈ 1.52 µM) | 0.5 (≈ 1.52 µM) | 25 (≈ 76.1 µM) | 25 (≈ 76.1 µM) | 0.5 (≈ 1.52 µM) | – |
| COc1cc(Cc2cnc(N)nc2N)c2c(c1OC)OC(C)C2 (stereo not shown) [Compound 2, 2,4-Diamino-5-(2,3-dihydro-6,7-dimethoxy-2-methyl-4-benzofuranylmethyl)-pyrimidine] | 0.5 (≈ 1.58 µM) | 0.5 (≈ 1.58 µM) | 0.5 (≈ 1.58 µM) | 0.05 (≈ 0.158 µM) | 6.2 (≈ 19.6 µM) | – | 0.5 (≈ 1.58 µM) | – |
| COc1cc(Cc2cnc(N)nc2N)c2cc(C)oc2c1OC [Compound 3, 2,4-Diamino-5-(6,7-dimethoxy-2-methyl-4-benzofuranylmethyl)pyrimidine] | 0.05 (≈ 0.159 µM) | 0.05 (≈ 0.159 µM) | 0.05 (≈ 0.159 µM) | 0.05 (≈ 0.159 µM) | 0.6 (≈ 1.91 µM) | 2.8 (≈ 8.91 µM) | 0.5 (≈ 1.59 µM) | – |
| COc1cc(Cc2cnc(N)nc2N)cc(OC)c1OC [TMP, 2,4-Diamino-5-(3,4,5-trimethoxybenzyl)pyrimidine, reference compound] | 0.5 (≈ 1.72 µM) | 0.5 (≈ 1.72 µM) | 0.5 (≈ 1.72 µM) | 0.1 (≈ 0.344 µM) | 3.1 (≈ 10.7 µM) | 40 (≈ 138 µM) | 0.05 (≈ 0.172 µM) | most active general antibacterial agent |
